Test results from US7820624B2, “Peptide ligands” (ICH Productions Limited, priority 2003, dated 2010).

How the values were obtained:
[1] = test system: human monocyte-derived immature dendritic cells; assay: Titration of phage clone binding to human dendritic cells; conditions: 2×10^11 phage on 5×10^4 cells, 1 hour on ice
Protocol: Phage were recovered and titred from each round of selection as follows. 2×10^11 Blocked phage were added to 5×10^4 blocked monocyte-derived immature dendritic cells for 1 hour on ice before washing cells three times with 0.05% Tween20-PBS, eluting phage with TBS pH5.5, and lysing cells to harvest the phage remaining bound. The numbers of phage harvested by cell lysis were calculated as plaque forming units (pfu). […] Sequencing of the bound phage shown in FIG. 1 identified the peptides as APSNSTA [SEQ. ID. NO.:15], QLLTGAS [SEQ. ID. NO.:30], TARDYRL [SEQ. ID. NO.:31], FQSQYQK [SEQ. ID. NO.:26], PLMPSLS [SEQ. ID. NO.:24], FPRAPHH [SEQ. ID. NO.:32], MASISMK [SEQ. ID. NO.:27], DWWHTSA [SEQ. ID. NO.:28], SHVKLNS [SEQ. ID. NO.:29], and SPALKTV [SEQ. ID. NO.:16].
The dendritic cells were spun down at 2000 rpm, for 5 min at 4° C., and resuspended in the phage solution, allowing the phage to bind for 1 hour on ice with occasional mixing. The cells were then washed in PBS-Tween 20 (0.05%) three times before eluting phage with 166 μl TBS pH5.5. for 10 min on ice. The eluate was neutralised with […] Tris-HCl pH 8, the cells were spun down, and the supernatant removed to be stored as eluate. The cell pellet was resuspended in 200 μl of cell lysis buffer (30 mM Tris-HCl, 1 mM EDTA pH 8.0) for 1 hour on ice, with shaking. The cell debris was removed by spinning at 5000 rpm for 5 min and the supernatant recovered. The phage in the eluate and the cell lysate were titred by measuring plaque forming units (pfu) in E. coli ER2738 as described in the NEB C7C technical bulletin.
The titration of phage clone binding was carried out using human and mouse dendritic cells, with binding to plastic as a control. The human cells were obtained from donors as stated below.

HAEo- cells = assay: LID transfection, luciferase reporter assay, HAEo-; format: cell-based, human; conditions: LID with lipofectin
Protocol: Transfection complexes comprising lipid, peptide and DNA were prepared. The lipid component was lipofectin (Invitrogen Ltd, Paisley, UK), the peptide component was a peptide A to F, 6 or 6J derivative, as described above, and the DNA was the plasmid pCILuc (Promega UK Ltd, Southampton). In the transfection complex, peptide to DNA charge ratios (+/−) were used at 3:1, 5:1 and 7:1. The lipid component was maintained at a constant proportion, by weight, relative to DNA of 0.75:1. Prior to making transfection complexes the lipid component was diluted to a concentration of 15 μg or 30 μg per ml, the peptide was prepared at 0.1 mg/ml and the DNA was at 40 μg per ml. All dilutions were performed with OptiMEM reduced serum tissue culture medium (Life Technologies). Transfection complexes were made by mixing of components in the order 1) lipid then 2) peptide and finally 3) DNA, then diluted with OptiMEM to a concentration relative to the DNA component of 0.25 μg DNA per […]
For transfection of these types of cell i.e. HMEC, HAEo-, N2a and HepG2, 1×10^4 cells were seeded overnight in 96 well plate. 200 μl of the suspension of the transfection complex prepared according to (b) above was added to each well. The suspension was applied to cells within 5 minutes of preparation. […]

[2] = test system: human monocyte-derived immature dendritic cells; assay: LID (lipid-peptide-DNA) transfection of immature dendritic cells, EGFP by FACS and 7AAD cell death; format: cell-based; conditions: for Transfection efficiency, % positive cells: day 4 cells; for Transfection efficiency (percentage cells positive for EGFP) relative to peptide 6: day 6 cells, LID vector
Protocol: Lipopolyplex (LID) transfection complexes comprising lipid (L), peptide (in the form of a peptide derivative as described above) (I) and DNA (D) were prepared. The lipid component was Lipofectin or Lipofectamine 2000 (Invitrogen Ltd, Paisley, UK), the peptide component was a synthesized peptide A to F, 6 or 6J derivative, as described in Table 7 above, and the DNA was the plasmid pEGFP-N1 (Clontech, BD Biosciences, Palo Alto, Calif.)
In the transfection complex, peptide component to DNA charge ratios (+/−) were used at 1.5:1, 3:1 and 7:1. The lipid
component (Lipofectin or Lipofectamine 2000) was maintained at a constant proportion, by weight, relative to DNA of 0.75:1. Prior to making transfection complexes, in method A the lipid component was diluted to a concentration of 15 μg per ml, the peptide was prepared at 0.1 mg/ml and the DNA (plasmid pEGFP-N1, BD Biosciences, Cowley, UK, prepared using EndoFree plasmid kit, Qiagen Ltd, Crawley, UK) was at 10 μg per ml. All dilutions were performed with OptiMEM reduced serum tissue culture medium (Life Technologies Ltd, Paisley, UK). In method B prior to making transfection complexes the lipid component was diluted to a concentration of 30 μg per ml, the peptide was prepared at 0.1 mg/ml and the DNA (plasmid pEGFP-N1, BD Biosciences, Cowley, UK, prepared using EndoFree plasmid kit, Qiagen Ltd, Crawley, UK) was at […]. All dilutions were performed in serum-free RPMI.
Transfection complexes were made by mixing the components in the order 1) lipid (50 μl) then 2) peptide (70 μl) and finally 3) DNA (50 μl), then diluting with OptiMEM or serum free RPMI, as appropriate, to a concentration relative to the DNA component of 2 μg DNA per […] (OptiMEM) or 500 μl (RPMI).
Immature day 6 dendritic cells, obtained as described in Example 1(v) above, were plated into a 48 well plate at 5×10^4 cells per well in complete media and allowed to settle for 3 hours at 37° C. 300 μl or 500 μl (as appropriate) of the transfection complex obtained as described above was added to each well. The transfection complex was applied to cells within 5 minutes of preparation. Transfection incubations were performed at 37° C. for 4 hours, after which the medium was replaced with complete medium with cytokines for 24 hours. Cells were harvested by scraping, spun down and resuspended in 300 μl PBS for FACS analysis to determine the percentage of cells positive for the reporter gene EGFP (Enhanced Green Fluorescent Protein). Each transfection was performed in triplicate wells.
For transfection of monocytes, peripheral blood monocytes were prepared using Lymphoprep centrifugation and CD14 bead selection as described in the method for preparation of monocyte derived dendritic cells in Example 1(v) above. These cells were then transfected as described as described for dendritic cells except that transfection of the monocytes (and also of day 3 or day 4 immature dendritic cells) was carried out in solution.

[3] = lipofectin, lipid:DNA 0.75:1, peptide:DNA 7:1 (FIG. 5a)

Substance	Phage harvested by cell lysis (pfu), human donor S [1]	Phage harvested by cell lysis (pfu), human donor one [1]	Phage harvested by cell lysis (pfu), human donor two [1]	Transfection efficiency (luciferase activity per mg protein) relative to peptide 6 (HAEo- cells)	Transfection efficiency, % positive cells [2, 3]	Transfection efficiency (percentage cells positive for EGFP) relative to peptide 6 [2]	Transfection efficiency, % positive cells ([2]; no lipid)
APSNSTA (Synthetic peptide binding to dendritic cells)	6480 pfu ×10^3	1920 pfu ×10^3	460 pfu ×10^3	one and a half times that using peptide 6	11%	equal to those of peptide 6	
SHVKLNS (Synthetic peptide binding to dendritic cells)	7280 pfu ×10^3	2620 pfu ×10^3	1160 pfu ×10^3	approximately double that seen with peptide 6	17%	approximately one and a half times that of the positive control, peptide 6	less than 1%
